The results in this text go back to article PMC7470111, “Escherichia coli γ-carbonic anhydrase: characterisation and effects of simple aromatic/heterocyclic sulphonamide inhibitors” (Journal of Enzyme Inhibition and Medicinal Chemistry, 2020).

This assay deals with T1, EcoCAγ (Escherichia coli, UniProt P0A9W9).
T1 construct: gene yrdA; recombinant full-length WP_009008373.1, N-terminal His-tag, 72 extra N-terminal residues versus YrdA
T1 sequence (P0A9W9 1-184): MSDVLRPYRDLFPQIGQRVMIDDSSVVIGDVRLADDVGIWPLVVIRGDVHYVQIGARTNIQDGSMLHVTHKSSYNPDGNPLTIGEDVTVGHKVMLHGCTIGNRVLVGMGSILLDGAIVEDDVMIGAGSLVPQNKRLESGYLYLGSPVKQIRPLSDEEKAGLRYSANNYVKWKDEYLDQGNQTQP
Description: biochemical. The protocol: The CO2 hydration activity performed by the EcoCAγ was monitored using an Applied Photophysics stopped-flow instrument. […] To determine the kinetic parameters by Lineweaver-Burk plots and the inhibition constants, a concentration of CO2 between 1.7 to 17 mM was used. At least six measurements of the original 5–10% reaction were used to assess the initial velocity for each inhibitor. The uncatalyzed rates were identically determined and detracted from the total observed rates. Stock inhibitor solutions (10–100 mM) were prepared in distilled-deionized water and dilutions up to 0.01 mM were done with the buffer test. Inhibitor and enzyme solutions were preincubated together for 15 min at room temperature prior to assay, in order to allow for the formation of the E-I complex or for the eventual active site mediated hydrolysis of the inhibitor. The inhibition constants were obtained by non-linear least-squares methods using PRISM 6 and the Cheng-Prusoff equation, as reported earlier[12]^,[14]^,[68], and represent the mean from at least three different determinations. h CAI and hCA II were recombinant enzymes obtained in-house. The synthetic E. coli gene encoding for the EcoCAγ (Accession number: WP_009008373.1) was synthesised by the Invitrogen GeneArt (ThermoFisher Scientific), a company specialised in gene synthesis, and cloned into the expression vector pET100D-Topo/γ-CA. Briefly, the gene was designed to produce the recombinant EcoCAγ as fusion proteins with a tag containing nucleotides encoding for six histidines (His-Tag) at the amino terminus of neosynthetized recombinant protein. Competent E. coli BL21 (DE3) codon plus cells (Agilent) were transformed as described by Del Prete et al.. Isopropyl β-D-1-thiogalactopyranoside (IPTG) at the concentration of 1 mM was added to the cellular culture to overexpress the recombinant EcoCAγ. After growth, the cells were harvested and disrupted by sonication. Cellular extract was purified using a nickel affinity column (His-Trap FF), which allows the interaction between the matrix functionalised with Ni^2+ ions and the His-Tag at the N-terminus of the protein. The HisTrap column (1 ml) was equilibrated with 20 ml equilibration buffer (50 mM Tris, 20 mM imidazole and 150 mM sodium chloride, pH 7.5) at 1 ml/min. The supernatant from the cellular lysate was loaded onto the column at 1 ml/min, and eluted from the column by fluxing imidazole (300 mM) at a flow of 0.5 ml/min in a buffer composed of 50 mM Tris and 300 mM sodium chloride, pH 7.5. The recovered EcoCAγ was 90% pure. The protein quantification was carried out by Bradford method (BioRAD).

Broadly, the Ki is the dissociation constant of the complex between target and ligand, obtained from inhibition or displacement. Low readings indicate a stronger hold on the target, high ones a looser hold on the target.

Structures are written as SMILES. Read-outs that look alike come from different tables or passages of the source.

`Nc1cccc(S(N)(=O)=O)c1` [compound 1] displayed a Ki (inhibitor) of 0.314 µM.

`NS(=O)(=O)c1cccc(S(N)(=O)=O)c1` [compound 3]: affinity was put at a Ki of 0.246 µM.

The compound `Cc1ccc(S(N)(=O)=O)cc1` [compound 4] had a Ki of 0.221 µM.

As to `NCCc1ccc(S(N)(=O)=O)cc1` [compound 6], the Ki stood at 0.622 µM.

Take `Nc1ccc(S(N)(=O)=O)cc1F` [compound 7]: the Ki was determined as 0.605 µM.

For the compound `Nc1ccc(S(N)(=O)=O)cc1Cl` [compound 8], the affinity, expressed as Ki, was 0.671 µM.

As to `Nc1ccc(S(N)(=O)=O)cc1Br` [compound 9], affinity was put at a Ki of 0.718 µM.

Take `NS(=O)(=O)c1cc(Cl)cc(Cl)c1O` [compound 10]: the affinity, expressed as Ki, was 2.58 µM.

`Nc1cc(C(F)(F)F)c(S(N)(=O)=O)cc1S(N)(=O)=O` [compound 11] gave a Ki of 1.78 µM.

In the case of `Nc1cc(Cl)c(S(N)(=O)=O)cc1S(N)(=O)=O` [compound 12], the Ki stood at 1.95 µM.

Consider `Nc1nnc(S(N)(=O)=O)s1` [compound 13], for which the Ki is 0.197 µM.

As for `Cn1nc(S(N)(=O)=O)sc1=N` [compound 14], the affinity corresponds to a Ki of 0.712 µM.

For the compound `NS(=O)(=O)c1ccc(O)cc1` [compound 15], the Ki worked out at 1.01 µM. This Ki and that of the compound before are within 1.5-fold of each other.

Compound `NS(=O)(=O)c1ccc(CO)cc1` [compound 16] yielded a Ki of 4.24 µM.

Compound `NS(=O)(=O)c1ccc(CCO)cc1` [compound 17] gave a Ki of 1.97 µM.

As for `NS(=O)(=O)c1ccc(C(=O)O)cc1` [compound 18], affinity was put at a Ki of 2.06 µM. The Ki values of the last two compounds are within 1.5-fold of each other.

Compound `Nc1nccc(Nc2ccc(S(N)(=O)=O)cc2)n1` [compound 19] showed an inhibitory constant (Ki) of 1.89 µM. This Ki and that of the compound before are within 1.5-fold of each other.

`Nc1ccc(S(=O)(=O)Nc2nnc(S(N)(=O)=O)s2)cc1` [compound 20] gave a Ki of 0.883 µM.

For the compound `NS(=O)(=O)c1ccc(CCNS(=O)(=O)c2ccc([N+](=O)[O-])cc2CO)cc1` [compound 21], the Ki (inhibitor) is 0.819 µM. In other words, the sub-micromolar range.

In the case of `Nc1ccc(S(=O)(=O)Nc2ccc(S(N)(=O)=O)cc2)cc1` [compound 22], the Ki is 3.5 µM.

In the case of `Nc1ccc(S(=O)(=O)NCc2ccc(S(N)(=O)=O)cc2)cc1` [compound 23], the Ki came out at 4.04 µM.

`Nc1ccc(S(=O)(=O)NCCc2ccc(S(N)(=O)=O)cc2)cc1` [compound 24] registered a Ki of 4.26 µM.
